Data from patent US20070099929A1, “Substituted thiophenes” (AiCuris GmbH & Co. KG, priority 2003, published 2007).

Tested on: HCV replicon HuH5-2
Assay: Cellular HCV-RNA replication assay (replicon system), luciferase reporter, with Alamar Blue cytotoxicity test
Type: cell-based, hepatitis C virus
Conditions: for SI (selectivity index) = CC50/EC50: CC50 from Alamar Blue fluorescence, EC50 from luciferase activity, HuH5-2 cells; for EC50: Hepatitis C virus, Huh-5-2, HuH5-2 replicon cells, substance concentration with which the luciferase activity decreases by 50% compared with the untreated replicon control, incubation 4-5 days
Excerpt: 1. Measurement of the Activity of Substances in a Cellular HCV-RNA Replication Assay (“Replicon System”)
Hepatitis C cannot as of yet be replicated reproducibly with high titres in cell culture. The activity of substances is therefore detected in the so-called replicon system. This comprises parts of the HCV genome or complete HCV genomes which are transferred into cell lines (here HuH-7 cells) of human origin. It is possible by insertion of a selection marker to obtain stable cell lines which, under selection pressure, replicate genomic or subgenomic RNA of HCV [Lohmann et al., Science 285, 110-113 (1999); Blight et al., Science 290, 1972-1974 (2000)]. The HuH5-2 cells used here harbour a selectable, luciferase-carrying, cell culture-adapted replicon as described in EP 1 043 399. The cells are cultured in Dulbecco's modified […] medium (DMEM) with 10% fetal calf serum (FCS), 1% Pen/Strep, 1% NEAA, 1% L-glutamine and 250 μg/ml Geneticin (G418). To carry out the assays described below, the cells are initially trypsinized and resuspended with the DMEM medium described above without G418. Depending on the assay, the cells are seeded in 24-well or 384-well plates. Depending on the reading or assay method used, transparent or white assay plates coated for cell culture are used.
The test compounds are made up as 50 mM stock solution in DMSO. To determine the EC50 values, the substances subsequently undergo a serial two-fold dilution in DMEM. The dilutions are transferred as doublets to the cell culture plates. The trypsinized cells which have been resuspended in medium are then added. The final concentration of the test substances in the cell culture wells is for example 300 μM to 0.0001 μM. Interferon-alpha serves as reference substance in concentrations of 60 IU/ml to 1 IU/ml. Antimycin-alpha serves as cytotoxicity control in concentrations of 2 μM to 0.03,M. Untreated cells serve as reference. The plates are then incubated at 37° C. under 5% CO2 for 4-5 days. The various measurements and the quantification of the HCV replicon RNA then take place.
Alamar Blue is a water-soluble redox indicator which is reduced as a function of the metabolic activity of the cells to be investigated. The Alamar Blue test is used as quantitative cytotoxicity assay. For this purpose, the cells are seeded with the appropriate test substances (see above) in white 384-well cell culture plates and incubated correspondingly at 37° C. under 5% CO2 for 4 days. 4 to 6 hours before the actual measurement, 5 μl of Alamar Blue are added per well. The fluorescence is then measured at an […]. If this test is to be followed by chemiluminescence measurement (see below) on the same plate, the dye solution is aspirated off from the cells and the latter are subsequently washed once with PBS. The PBS is likewise aspirated off again from the cells.
A reporter gene is introduced into the HCV replicon HuH5-2, in this case the gene for the luciferase enzyme of Photinus pyralis. After the addition of the luciferase reagent (20 mM Tris/HCl, 20 mM tricine, 2.67 mM MgSO4, 0.1 mM EDTA, 33.3 mM DTT, 0.27 mM coenzyme A, 0.47 mM luciferin, 0.53 mM ATP, pH 7.8) to the cells, the chemiluminescence is measured in a luminometer. Normally, the photons are measured in a period of from 10 sec to 60 sec.
The following data can be determined from the assay plates: • CC50=substance concentration in μM with which the Alamar Blue fluorescence decreases by 50% compared with the untreated control; • EC50=substance concentration with which the luciferase activity decreases by 50% compared with the untreated replicon control; • SI (selectivity index)=CC50/EC50. […]

## CC(C)N(C(=O)[C@@H]1CC[C@@H](C)C[C@@H]1O)c1sc(-c2ccccc2)cc1C(=O)O (single isomer, unassigned) [Example 54]
  SI (selectivity index) = CC50/EC50: >277
  EC50: 180 nM

## CC(C)N(c1sc(-c2ccccc2)cc1C(=O)O)C(=O)[C@H]1CC[C@H](C)CC1 [Example 1, 2-[Isopropyl-(trans-4-methylcyclohexanecarbonyl)amino]-5-phenylthiophene-3-carboxylic acid]
  SI (selectivity index) = CC50/EC50: >50
  EC50: 1000 nM

## CC(C)N(c1sc(-c2ccc(F)cc2)cc1C(=O)O)C(=O)[C@H]1CC[C@H](C)CC1 [Example 19, 5-(4-Fluorophenyl)-2-{isopropyl[(trans-4-methylcyclohexyl)carbonyl]amino}thiophene-3-carboxylic acid]
  SI (selectivity index) = CC50/EC50: >100
  EC50: 400 nM

## CC(C)N(c1sc(-c2cccnc2)cc1C(=O)O)C(=O)[C@H]1CC[C@H](C)CC1 [Example 30]
  SI (selectivity index) = CC50/EC50: >38
  EC50: 1300 nM

## CC(C)N(c1sc(C2CCN(S(C)(=O)=O)CC2)cc1C(=O)O)C(=O)[C@H]1CC[C@H](C)CC1 [Example 35, 2-{Isopropyl[(trans-4-methylcyclohexyl)carbonyl]amino}-5-[1-(methylsulfonyl)piperidin-4-yl]thiophene-3-carboxylic acid]
  SI (selectivity index) = CC50/EC50: >18
  EC50: 2800 nM

## C[C@H]1CC[C@H](C(=O)N(c2sc(-c3ccccc3)cc2C(=O)O)C2CCOCC2)CC1 [Example 42, 2-[[(trans-4-Methylcyclohexyl)carbonyl](tetrahydro-2H-pyran-4-yl)amino]-5-phenylthiophene-3-carboxylic acid]
  SI (selectivity index) = CC50/EC50: >100
  EC50: 500 nM

## COCC(C)N(C(=O)C1CCC(C)CC1)c1sc(-c2ccccc2)cc1C(=O)O (centres unmarked) [Example 49]
  SI (selectivity index) = CC50/EC50: >63
  EC50: 800 nM
